Experimental data as given in patent US20230382916A1, “HETEROARYL HETEROCYCLIC COMPOUNDS AND USES THEREOF” (HUTCHISON MEDIPHARMA LIMITED, priority 2020, published 2023).

Key:
BTK recombinant protein = BTK recombinant protein (Homo sapiens (Human), UniProt Q06187); experiment: Determination of biochemical BTK (Z'-LYTE kinase assay); settings: 32 μM ATP
Source text: BTK recombinant protein: Invitrogen, Cat #PV3363;
Z′-LYTE® kinase test kit-tyrosine 1 peptide: Invitrogen, Cat #PV3190;
Z′-LYTE® biochemical assay employs a fluorescence resonance energy transfer (FRET)-based, coupled-enzyme format and is based on the differential sensitivity of phosphorylated and non-phosphorylated peptides to proteolytic cleavage. Both ends of the short peptide substrate are labeled with two fluorescent groups to form a FRET paired combination. In the primary reaction (the Kinase Reaction), the kinase transfers the γ-phosphate of ATP to a single […] residue on the short peptide substrate. In the secondary reaction (the development reaction), the non-phosphorylated short peptides were recognized and cleaved by a site-specific protease (the development reagent). Phosphorylated short peptides can resist such cleavage. Cleavage of short peptides can disrupt the donor (such as coumarin) and receptor fluorophores (fluorescein) on the short peptides, while the phosphorylated short peptides can maintain FRET. The calculation method of the ratio is as follows, and the ratio of the respective emission signals generated by the donor fluorophores emitted (after excitation at 400 nm) to the receptors is calculated. Emission signal ratio=emitted light by coumarin (445 nm)/emitted light by fluorescein (520 nm). If the FRET short peptide is phosphorylated (such as no kinase inhibitor), the emitted light ratio will remain in a lower level. If the FRET short peptide is non-phosphorylated (such as kinase inhibitor), the emitted light ratio will be in a higher level. In this way, the inhibitory effects of different compound inhibitors on BTK kinase activity would be distinguished.
The experiment was carried out according to the instructions of the Z′-LYTE® kinase test kit-tyrosine 1 peptide. Reagent preparation: 1.33× kinase buffer: 5× kinase buffer was diluted with water to 1.33× kinase buffer; an enzyme solution: the kinase was dissolved in 1.33× kinase buffer with the final working concentration being 3.32 nM; a short peptide solution: a short peptide stock solution (1 mM dissolved in DMSO) was dissolved in 1.33× kinase buffer with the final working concentration being 2 μM; Z′-LYTE Tyr01 phosphorylated short peptide solution, 0.6 μl of stock solution (1 mM dissolved in DMSO) was dissolved in 149.4 μl of 1.33× kinase buffer; an ATP solution: an ATP stock solution (10 mM aqueous solution) was dissolved in 1.33× kinase buffer with the final working concentration being 32 μM; a color-developing solution: color-developing solution B was dissolved in color-developing buffer with the final working concentration being 1× color-developing solution; 4× compound preparation: the compound was diluted in 3-fold gradient concentration to finally obtain 4% DMSO aqueous solution containing different concentrations of the compound, with the final working concentration being 3000, 1000, 333.33, 111.11, 37.04, 12.35, 4.12, 1.37 nM, 8 concentration points in total.
Specific steps of the experiment: In the experiment, there were three control groups, each with 8 replicate wells, which were C1 100% inhibition group (no ATP), C2 0% inhibition group (with ATP), and C3 100% phosphorylation group, respectively. 2.5 μl of serially diluted compound was added to each well of a 384-well plate, with double replicate wells, and 4% DMSO solution was added to wells C1, C2, and C3. After that, except for wells C3, 2.5 μl of BTK enzyme solution was added to each remaining well, which was left to stand at 4° C. for 30 minutes. After that, except for wells C3, 2.5 μl of short peptide solution was added to each well, and 5 μl of phosphorylated short peptide solution was added to each of wells C3. 2.5 μl of 1.33× kinase buffer was added to each of wells C1 and C3, and 2.5 μl of ATP solution was added to each of the remaining wells. The wells were centrifuged transiently, and the plate was shaken at 1000 rpm for 30 seconds to perform transient centrifuge. […]

[1] = Stability test in liver microsomes (rat); format: in vitro ADME; settings: rat liver microsomes 0.5 mg/mL, 1 μM compound
Experimental: (§1) Both male CD-1 mouse pooled liver microsomes and male SD rat pooled liver microsomes were purchased from BioreclamationIVT Corporation, USA.
(§2) The test compound stock solution was diluted with an organic solvent (usually a mixture of acetonitrile, methanol and water with various ratios, depending on the solubility of the compound, if necessary, 1 N hydrochloric acid or 1 N sodium hydroxide would be added to facilitate solubilization) to the 0.1 mM (the final concentration of the compound in the reaction system was 1 μM) and the concentration percentage of the organic solvents in the incubation system no more than 1% (wherein the percentage of DMSO was required to be no more than 0.1%). An appropriate amount of 100 mM NADP, 500 mM G-6-P and 100 Unit/mL G-6-PDH were mixed and diluted with ultrapure water (the final system contains 1 mM NADP, 5 mM G-6-P and 1 Unit/mL G-6-PDH), pre-incubated in a 37° C. water bath for 10 minutes and then placed on ice for use as a NADPH regeneration solution. 20 mg/mL liver microsomes solution and 200 mM phosphate buffer were mixed, and diluted with ultrapure water to give a liver microsomes solution containing 2.5 mg/mL liver microsomes (the final concentration of the reaction system is 0.5 mg/mL) and 50 mM phosphate buffer. The diluted liver microsomes solution was mixed with 0.1 mM compound solution, a mixture of 100 mM EDTA, 300 mM MgCl2 solution, 200 mM phosphate buffer (the final system was 3 mM MgCl2, 1 mM EDTA and 50 mM phosphate buffer) and water in an appropriate volume was added. Finally, the NADPH regeneration solution was added, then the reaction solution was placed in a 37° C. water bath to start the reaction (the reaction time was 30 minutes), and the reaction was stopped by adding the ice-cold acetonitrile reaction stopping solution containing the internal standard. The 0-minute sample was not incubated in a 37° C. water bath, and its difference from the 30-minute sample further lies in that the ice-cold acetonitrile reaction stopping solution containing the internal standard was added first, and then the NADPH regeneration solution was added. The sample added with the reaction stopping internal standard solution was vortexed and mixed well, and then centrifuged at 4400 rpm for 10 minutes. The supernatant was taken and diluted ten times with 50% methanol for LC-MS/MS analysis.
(§3) LC-MS/MS was used to determine the concentration of the compound in the sample. The percentage of the remaining compound after 30 minutes of incubation comparing with that in the 0-minute sample was calculated using the peak area ratio of the compound to the internal standard as an indicator, to evaluate the metabolic stability of the compound.

[2] = Stability test in liver microsomes (mouse); format: in vitro ADME; settings: mouse liver microsomes 0.5 mg/mL, 1 μM compound
Experimental: as §1, §2, §3

[3] = system: anti-IgD antibody-induced B cell activation in mice whole blood; experiment: In vivo efficacy of the inhibitory effect on BTK target: anti-IgD antibody-induced B cell activation in mice whole blood after oral dosing; design: species or system mouse; settings: 20 mg/kg oral single dose, 16 h
Experimental: Objects: B cells in mice whole blood were induced and activated by the anti-IgD antibody, and the inhibitory effect of the compound of the present invention on B cell activation in vivo was studied, so as to determine the inhibitory effect of the compound of the present invention on the BTK target in vivo.
Methods: C57BL/6 mice (female, 18-20 g, purchased from Shanghai Lingchang Biotechnology Co., Ltd.) were grouped according to Table 1.
The animals of each group were administered, then were placed in CO2 for anesthesia at designated time points, blood samples were taken from […] via retro-orbital bleeding, and heparin was used for anticoagulation; 90 μL of whole blood was taken from mice of each group, and added to a 96 well culture plate, and anti-mouse IgD antibody (BIO-RAD, Cat #MCA4693) was added to each well to a final concentration of […] (respectively for each drug-treated group and anti-IgD antibody-inducted vehicle group); in addition, 90 μL of whole blood of mice in the vehicle group was taken and added to the 96-well culture plate, and PBS (phosphate buffer, GIBCO, Cat #C20012500BT) was added to each well to a final concentration of 0.01 μg/L (namely, the vehicle control group); Each group was mixed well and incubated in a 37° C./5% CO2 incubator for 4 hours. In addition, the blood of mice in the drug-treated group was centrifuged to separate plasma for blood concentration analysis.
B cell activation ratio=percentage of CD69^+CD19^+ double positive B cells/percentage of CD19^+ single positive B cells
Inhibition ratio=(percentage of B cell activation ratio in anti-IgD antibody-induced vehicle group−percentage of B cell activation ratio in drug-treated group)/(percentage of B cell activation ratio in anti-IgD antibody−induced vehicle group-percentage of B cell activation ratio in vehicle control group)×100%
All data are represented by mean±standard error. For the comparison between each drug-treated group and the anti-IgD antibody-induced vehicle group, p value was calculated by Graphpad Prism using one-way ANOVA analysis of variance and Dunnett's test, and for the comparison between each drug-treated group, p value was calculated by using unpaired t test.

BTK recombinant protein, sequence (Q06187 whole entry): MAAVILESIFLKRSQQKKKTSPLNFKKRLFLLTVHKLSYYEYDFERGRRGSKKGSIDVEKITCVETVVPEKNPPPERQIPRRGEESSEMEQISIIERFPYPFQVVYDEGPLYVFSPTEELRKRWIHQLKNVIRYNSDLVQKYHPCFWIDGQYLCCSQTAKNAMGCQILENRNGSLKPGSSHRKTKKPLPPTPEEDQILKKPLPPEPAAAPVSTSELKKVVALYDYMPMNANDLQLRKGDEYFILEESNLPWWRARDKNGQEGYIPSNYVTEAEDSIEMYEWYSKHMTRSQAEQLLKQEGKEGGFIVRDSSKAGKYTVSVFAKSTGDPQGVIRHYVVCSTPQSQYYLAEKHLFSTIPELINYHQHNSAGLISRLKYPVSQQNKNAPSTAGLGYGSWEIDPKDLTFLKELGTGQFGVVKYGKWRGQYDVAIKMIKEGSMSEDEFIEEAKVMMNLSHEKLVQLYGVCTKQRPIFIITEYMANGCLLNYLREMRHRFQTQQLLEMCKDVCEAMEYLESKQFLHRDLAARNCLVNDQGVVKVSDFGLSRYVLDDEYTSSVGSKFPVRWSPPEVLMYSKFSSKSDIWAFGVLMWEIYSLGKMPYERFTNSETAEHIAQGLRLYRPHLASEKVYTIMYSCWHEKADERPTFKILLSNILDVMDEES

C[C@@H]1CN(C2COC2)C[C@H](C)N1c1ccc(Nc2cc(-c3ccnc(-n4ccn5c6c(cc5c4=O)CC(C)(C)C6)c3CO)cn(C)c2=O)nc1 [Compound 2]
IC50 (BTK recombinant protein): 7 nM | RLM, percentage of the remaining compound after 30 minutes of incubation [1]: 85.7% | MLM, percentage of the remaining compound after 30 minutes of incubation [2]: 92.6% | Inhibition ratio (%) on B cell activation [3]: 43% | B cell activation ratio (the population of activated B cells in total B cells) ([3]; mean ± standard error): 20.6 ± 5.0 | Inhibition ratio (%) on B cell activation ([3]; listed as compound 2): 43%
